# Assay results as given in publication PMC7118115, “Tumor-penetrating peptide for systemic targeting of Tenascin-C” (Scientific Reports, 2020).
# Entries after “also recorded” stand apart in the source; their conditions may differ. Ends that are not written are not given here.
# B1: FAM-Cys-PL3 fluorescent peptide (peptide)
# peptide: CAGRGRLVR
# modifications: not fully specified (N-terminus); also: 6-aminohexanoic acid spacer, position not given here
# B2: T7 phage displaying PL3 peptide (AGRGRLVR) (peptide)
# peptide: AGRGRLVR
# Assays:
# [1] = biological target: recombinant b1b2 domain of neuropilin-1 (NRP-1); test: phage binding to immobilized recombinant protein (cell-free); settings: read off a plot
# [2] = biological target: recombinant human Tenascin-C FnIII C domain (TNC-C), hexahistidine-tagged; test: as above; settings: read off a plot
# PC3 = test: In vivo play-off phage auditioning, PC3 tumor; set-up: species or system prostate carcinoma in athymic nude mice; settings: phage-displayed peptide; equimolar mix, i.v. 1 × 10^10 pfu/mouse, 2 h circulation, perfusion; Ion-Torrent sequencing; mean, N = 3 mice
# Method: (§1) Athymic nude mice (Hsd/Athymic Fox1 nu Harlan) were purchased from Envigo (Netherlands) and maintained under standard housing conditions of the Animal Facility of the Institute of Biomedicine and Translational Medicine, University of Tartu (Tartu, Estonia). For orthotropic GBM tumor models, we used NCH421K, P13, and P3 stem cell-like, WT-GBM cells. The individual GBM cells around 2–3 × 10^5 in 3 μL PBS were intracranially implanted into mice brain 2 mm right and 1 mm anterior to the bregma. U87-MG and PC3 subcutaneous models were induced by injecting 2–9 × 10^6 cells in 100 µl PBS subcutaneously into the right flank of 11–15 week old male and female nude mice. All animal experiments were performed in accordance with the procedures approved by the Committee of Animal Experimentation of Estonian Ministry of Agriculture, permits #42 and #48.
# (§2) In vivo play-off was used for internally controlled and competitive systemic phage homing studies in mice bearing tumor xenografts. Phages displaying the candidate TNC-C binding peptides and control peptides were individually amplified and purified by precipitation with PEG-8000 (Sigma-Aldrich, St. Louis, MO, USA), followed by […] gradient ultracentrifugation and dialysis. The phages were pooled at equimolar representation (Table 1 for details) and injected iv at 1 × 10^10 pfu (in 200 µl PBS) in tumor-bearing mice, circulated for 2 h, followed by anesthesia and intracardial perfusion with DMEM. The tumors and organs were collected in lysogeny broth (LB) medium containing 1% NP40, and the tissues were homogenized using a hand-held homogenizer. Phages in the tissue lysate were amplified in E.coli, purified by precipitation with PEG-8000, and DNA was extracted using a DNA extraction kit (High Pure PCR Template Preparation Kit; Roche, Basel, Switzerland). Next-generation sequencing of phage genomic DNA with Ion Torrent system (Thermo Fisher Scientific, Waltham, MA, USA) was used to evaluate the representation of each peptide-phage in the input mixture, in tumors and control organs. The FASTQ data from Ion Torrent were processed using a custom python script that identified the barcodes, constant flanking residues, and extracted the reads of the correct length.
# recombinant TNC-C = test: Cell-free phage binding to TNC-C; set-up: species or system human
# Method: For biopanning on recombinant human TNC-C, we used NNK-encoded CX7C and X7 peptide T7 phage libraries with diversity ~5 × 10^8. Throughout our screens, the selected phages were amplified following plate amplification protocol. The 1st and 4th rounds of biopanning were performed on TNC-C immobilized on Costar 96-Well ELISA plate (#3590, Corning Life Sciences, Tewksbury, MA, USA). Briefly, the multiwell plates were coated with 20 µg/ml recombinant TNC-C in 100 µl of PBS overnight at 4 °C, followed by blocking with 1% bovine serum albumin (BSA) in PBS overnight at 4 °C. The phage library (5 × 10^8 pfu in 100 µl of PBS-BSA) was incubated overnight at 4 °C, followed by 6 washes with PBS containing 1% BSA and 0.1% Tween-20 (washing buffer) to remove background phages, and by phage rescue and amplification in E. coli strain BLT5403 (Novagen, EMD Biosciences, MA, USA)[8]. The subsequent rounds of selection were performed on Ni-NTA Magnetic Agarose Beads (QIAGEN, Hilden, Germany) coated with His-6X tagged TNC-C (30 µg/10 µl beads) at room temperature for 1 h in 400 µl of PBS. The TNC-C beads were washed 3 times with washing buffer, followed by incubation with phages in (5 × 10^8 pfu in 100 µl in washing buffer) at room temperature for 1 h. The background phages were removed by rinsing 6 times with washing buffer, and the bound phages were eluted with 1 ml of PBS containing 500 mM Imidazole and 0.1% NP40.
# (§3) The eluted phages were titered and amplified for a next round of selection. After 5 rounds of selection, peptide-encoding DNA from a set of 48 phage clones was subjected to Sanger sequencing of peptide-encoding phage DNA[18],[22]. For cell-free binding studies with individual phage clones were incubated with Ni-NTA magnetic beads coated with hexahistidine-tagged TNC-C as above. RPARPAR phage binding to NRP-1-coated beads was used as a positive control. Phage clones displaying heptaglycine peptide (GGGGGGG, G7), or insertless phage clones were used as negative controls. […]
# Fig. S13. NRP -1-dependent internalization of PL3 -functionalized AgNPs […]
# Supplementary Materials and Methods
# Cloning, expression , and purification of TNC-C
# Vector Construction. A pF1K (Promega, # FXC00319) derivative plasmid containing full -length cDNA of TNC was used for PCR amplification of cDNA region of TNC-C with Phusion Hot Start II High -Fidelity DNA Polymerase (Thermo Fisher Scientific Inc # F -537L; primer pairs:
# 5′- CTCCTCT […] -3′ and 5′ -
# CAGACA CTCGAG TTATCA TGTAACAATCTC -3′ for domain TNC -C. NdeI and XhoI restriction sites underlined ). The fragments were cloned in the pET28a+ plasmid for TNC -C expression as a n N-terminally His -tagged protein .
# Expression and purification of TNC-C. The pET28a+ TNC-C plasmid was used for transformation of E. coli BL21 Rosetta 2 (DE3) pLysS cells (Novagen, #70956). The protein expression was induced by addition of isopropyl β-D-1-thiogalactopyranoside (IPTG) (Sigma, # I6758) to 0.5 mM final concentration and the bacteria were culture d at 18 °C for 16h . Cells were […]
# collected by centrifugation, resuspended in ice-cold IMAC buffer (25mM Tris-HCl, 400mM NaCl, 25mM imidazole pH 8, containing EDTA-free protease inhibitor cocktail and DNase I) and lysed by sonification (Bandelin Sonopuls HD 2070, Germany). The cleared bacterial lysate was purified using HiTrap IMAC HP column s (GE Healthcare # 17 -0920-05) on ÄKTA purification system (GE Healthcare ), and the eluate was dialyzed against PBS using 3.5 kDa cut - off 3mL Slide-A-Lyzer Dialysis Cassettes (Thermo Scientific #66330). TNC-C concentration was determined by bicinchoninic acid assay (Thermo Scientific #23227) , and the purity of the proteins was assessed by SDS -PAGE. Mass spectrometry and de novo peptide sequencing were used to confirm the size and sequence of the purified proteins . His-tagged NRP-1 b1b2 domain was expressed and purified as described (Teesalu et al., 2009) .
# Single-chain antibodies: The cDNA sequences encoding TNC-C-G11-scFV were retrieved from […]
# P3 SCL = test: In vivo play-off phage auditioning, P3 SCL tumor; set-up: species or system P3 stem cell-like glioblastoma in athymic nude mice; settings: phage-displayed peptide; equimolar mix, i.v. 1 × 10^10 pfu/mouse, 2 h circulation, perfusion; Ion-Torrent sequencing; mean, N = 3 mice
# Method: as §1, §2
# U87-MG = test: In vivo play-off phage auditioning, U87-MG tumor; set-up: species or system human glioblastoma in athymic nude mice; settings: phage-displayed peptide; equimolar mix, i.v. 1 × 10^10 pfu/mouse, 2 h circulation, perfusion; Ion-Torrent sequencing; mean, N = 3 mice
# Method: as §1, §2
# P13 = test: In vivo play-off phage auditioning, P13 tumor; set-up: species or system P13 glioblastoma in athymic nude mice; settings: phage-displayed peptide; equimolar mix, i.v. 1 × 10^10 pfu/mouse, 2 h circulation, perfusion; Ion-Torrent sequencing; mean, N = 3 mice
# Method: as §1, §2
# Norm. brain = test: In vivo play-off phage auditioning, normal brain; set-up: species or system athymic nude mice; settings: phage-displayed peptide; equimolar mix, i.v. 1 × 10^10 pfu/mouse, 2 h circulation, perfusion; Ion-Torrent sequencing; mean, N = 3 mice
# Method: as §2
# WT-GBM = test: In vivo play-off phage auditioning, WT-GBM tumor; set-up: species or system murine WT-GBM glioblastoma in athymic nude mice; settings: phage-displayed peptide; equimolar mix, i.v. 1 × 10^10 pfu/mouse, 2 h circulation, perfusion; Ion-Torrent sequencing; mean, N = 3 mice
# Method: as §1, §2
# fibronectin EDB-domain = test: Cell-free phage binding to fibronectin EDB; settings: T7 phage-displayed PL3; in words
# [3] = tested on: recombinant b1b2 domain of NRP-1; test: Cell-free phage binding to NRP-1; settings: T7 phage-displayed peptide
# Method: as §3
# collected by centrifugation, resuspended in ice-cold IMAC buffer (25mM Tris-HCl, 400mM NaCl, 25mM imidazole pH 8, containing EDTA-free protease inhibitor cocktail and DNase I) and lysed by sonification (Bandelin Sonopuls HD 2070, Germany). […] TNC-C concentration was determined by bicinchoninic acid assay (Thermo Scientific #23227) , and the purity of the proteins was assessed by SDS -PAGE. […]
# Single-chain antibodies: The cDNA sequences encoding TNC-C-G11-scFV were retrieved from US patent application EP2157102 A1, and synthetic DNA fragments were cloned in the pET28a+ expression plasmid. […] The purified antibodies were analyzed by SDS-PAGE. […]
# [4] = tested on: tumor tissue across models (4 glioma models and 1 prostate cancer model); test: In vivo play-off phage auditioning, across tumor models; set-up: species or system nude mice; settings: T7 phage play-off, i.v., 2 h
# Method: as §2
# [5] = biological target: recombinant human Tenascin-C FnIII C domain (TNC-C), hexahistidine-tagged (human); test: fluorescence polarisation; fluorescence anisotropy saturation binding; 0.66 uM FAM-Cys-PL3 with 0-112 uM NRP1 or 0-275 uM TNC-C; DPBS with 0.1% Pluronic F-127; 24 h at 25 C; non-specific binding with 500 uM Biotin-Ahx-PL3; global fit, single binding site with ligand depletion
# [6] = biological target: recombinant b1b2 domain of neuropilin-1 (NRP-1); test: as above
# [7] = biological target: recombinant b1b2 domain of neuropilin-1 (NRP-1); test: phage binding assay; individual T7 phage clones incubated with Ni-NTA magnetic beads coated with hexahistidine-tagged TNC-C (30 ug/10 ul beads) or NRP-1-coated beads, room temperature 1 h, washing buffer PBS with 1% BSA and 0.1% Tween-20, elution with 500 mM imidazole and 0.1% NP40, phage titered; binding as fold heptaglycine (G7) control phage or percent of parental PL3 phage
molecule,measurement,setting,value
T7 phage displaying PL3 peptide (AGRGRLVR) V7A,percent of parent,[1],180%
same,percent of parent,[2],76%
T7 phage displaying PL3 peptide (AGRGRLVR) R3A,percent of parent,[2],10%
T7 phage displaying PL3 peptide (AGRGRLVR) R8A,percent of parent,[1],19%
same,percent of parent,[2],26%
VGRVRFSRKLAAALE [Clone-30],"Representation of phage in tumors, PC3",PC3,1.2 fold G7 control phage
same,TNC-C binding (fold G7 control phage),"recombinant TNC-C; individual T7 phage clones, Ni-NTA magnetic beads coated with hexahistidine-tagged TNC-C",3702 fold G7 control phage
same,"Representation of phage in tumors, P3 SCL",P3 SCL,0.4 fold G7 control phage
same,"Representation of phage in tumors, U87-MG",U87-MG,0.7 fold G7 control phage
same,"Representation of phage in tumors, P13",P13,0.5 fold G7 control phage
same,Representation of phage in control brain tissue (Norm. brain),Norm. brain,0.1 fold G7 control phage
same,"Representation of phage in tumors, WT-GBM",WT-GBM,2.5 fold G7 control phage
T7 phage displaying PL3 peptide (AGRGRLVR) G4A,percent of parent,[1],96%
same,percent of parent,[2],90%
"AGRGRLVR (left off: T7 phage particle (peptide displayed on it), end not stated, kept) [PL3]",phage binding to fibronectin EDB-domain,fibronectin EDB-domain,did not bind; also recorded: no binding
same,"Representation of phage in tumors, PC3",PC3,3.9 fold G7 control phage
same,phage binding to NRP-1 (in words),[3]; NRP-1 b1b2-coated beads,binds
same,PL3 phage binding to b1b2 domain of NRP-1 vs heptaglycine control phage,[3]; fold over G7 control phage,~ 200 fold
same,phage binding to recombinant TNC-C (in words),"recombinant TNC-C; T7 phage-displayed peptide, alanine scan expressed as percent binding of parental PL3 phage, 3 independent experiments",binds; also recorded: robust interaction with TNC-C
same,"Representation of phage in tumors, P3 SCL",P3 SCL,2.1 fold G7 control phage
same,"Representation of phage in tumors, U87-MG",U87-MG,2.1 fold G7 control phage
same,"Representation of phage in tumors, P13",P13,4.7 fold G7 control phage
same,Representation of phage in control brain tissue (Norm. brain),Norm. brain,0.4 fold G7 control phage
same,"Representation of phage in tumors, WT-GBM",WT-GBM,24.1 fold G7 control phage
same,representation in tumor tissue across models,[4],overrepresented in tumor tissue across models tested
T7 phage displaying PL3 peptide (AGRGRLVR) L6A,percent of parent,[1],140%
same,percent of parent,[2],34%
T7 phage displaying PL3 peptide (AGRGRLVR) G2A,percent of parent,[1],92%
same,percent of parent,[2],100%
T7 phage displaying PL3 peptide (AGRGRLVR) R5A,percent of parent,[1],190%
same,percent of parent,[2],49%
B1,Kd,[5],51 µM
same,Kd,[6],1.1 µM
B2,fold binding over heptaglycine control phage,[7],200 fold
